Assays:
[1] = Main phase transition temperature (Tm) and reduced temperature (TR) of microbubble lipids; format: physicochemical; settings: reduced temperature T/Tm in Kelvin
Description: As used herein, the “phase transition temperature” (Tm) refers to the temperature at which lipid assemblies transition from a solid (crystalline) phase to a fluid (liquid crystalline) phase. For example, 1,2-Dipentadecanolyl-sn-Glycero-3-Phosphoeholine (C15) has a Tm of 33° C. Thus this lipid is in the solid phase at room temperature and transitions to the fluid phase when it is injected into the body.
Shell cohesion, as a function of acyl chain length, may be represented by the reduced temperature (TR), which is equal to the ratio of the ambient temperature (or “working temperature”) (T) to the main phase transition temperature (Tm) of the lipid (in Kelvin). For TR>1, the shell is in an expanded (fluid) state at the working temperature. For TR<1, the shell is in a condensed (solid) state at the working temperature. See Table 2 for a list of lipids with their corresponding main phase transition temperatures (Tm) and reduced temperatures (TR).

[2] = main phase transition temperature, solid to fluid phase; cited from earlier work
[3] = system: desaturated, venous whole blood; settings: 0.2 mL added to 2 mL blood, one inversion
Description: In one test tube, 0.2 mL of the microbubbles were added to 2 mL of desaturated, venous whole blood.
The test tubes were inverted once, and co-oximetry and blood gas values measurements were taken using a Radiometer ABL800 X blood gas machine.

SMILES: CCCCCCCCCCCC(=O)OC[C@H](COP(=O)([O-])OCC[N+](C)(C)C)OC(=O)CCCCCCCCCCC [C12, 1,2-Dilauroyl-sn-Glycero-3-Phosphocholine]
- TR at 25° C. [1]: 1.10
- TR at 37° C. [1]: 1.14
- Tm (° C.) [2]: −1 °C

SMILES: CCCCCCCCCCCCCCCCCC(=O)OC[C@H](COP(=O)(O)OCCN)OC(=O)CCCCCCCCCCCCCCCCC [C18, 1,2-Distearoyl-sn-Glycero-3-Phosphoethanolamine]
- TR at 25° C. [1]: 0.91
- TR at 37° C. [1]: 0.95
- Tm (° C.) [2]: 55 °C

SMILES: CCCCCCCCCCCCCCC(=O)OC[C@H](COP(=O)([O-])OCC[N+](C)(C)C)OC(=O)CCCCCCCCCCCCCC [C15, 1,2-Dipentadecanoyl-sn-Glycero-3-Phosphocholine]
- TR at 25° C. [1]: 0.97
- TR at 37° C. [1]: 1.01
- Tm (° C.) [2]: 33 °C

SMILES: CCCCCCCCCCCCCC(=O)OC[C@H](COP(=O)([O-])OCC[N+](C)(C)C)OC(=O)CCCCCCCCCCCCC [C14, 1,2-Dimyristoyl-sn-Glycero-3-Phosphocholine]
- TR at 25° C. [1]: 1.01
- TR at 37° C. [1]: 1.05
- Tm (° C.) [2]: 23 °C

SMILES: O=O [unencapsulated oxygen, oxygen]
- PCO2 [3]: 59 mmHg
- PO2 [3]: 33 mmHG
- oxygenated hemoglobin (oxyHb) [3]: 59%
- pH [3]: 7.33

SMILES: CCCCCCCCCCCCCCCC(=O)OC[C@H](COP(=O)([O-])OCC[N+](C)(C)C)OC(=O)CCCCCCCCCCCCCCC [C16, 1,2-Dipalmitoyl-sn-Glycero-3-Phosphocholine]
- TR at 25° C. [1]: 0.95
- TR at 37° C. [1]: 0.99
- Tm (° C.) [2]: 41 °C

— patent publication US8481077B2, “Microbubbles and methods for oxygen delivery” (The Trustees of Columbia University in the City of New York, priority 2007, dated 2013)
